Experimental data: PubChem BioAssay (NCI)
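Assay format: 96-well plates, 48-hour exposure. Abbreviation: GI50, concentration required for 50% inhibition of growth. TGI denotes the concentration required for complete inhibition of growth.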

Experiments:
Experiment in all cases: growth of human tumour cells (NCI), 48 h
MDA-MB-435 = system: MDA-MB-435
HT29 colon = system: HT29 colon
OVCAR-4 ovarian = system: OVCAR-4 ovarian
NCI/ADR-RES ovarian = system: NCI/ADR-RES ovarian
NCI-H460 lung = system: NCI-H460 lung
COLO 205 colon = system: COLO 205 colon
SK-MEL-2 melanoma = system: SK-MEL-2 melanoma
DU-145 prostate = system: DU-145 prostate
KM12 colon = system: KM12 colon
M14 melanoma = system: M14 melanoma

Row | SMILES | TGI (MDA-MB-435) [µM] | TGI (HT29 colon) [µM] | TGI (OVCAR-4 ovarian) [µM] | TGI (NCI/ADR-RES ovarian) [µM] | TGI (NCI-H460 lung) [µM] | TGI (COLO 205 colon) [µM] | TGI (SK-MEL-2 melanoma) [µM] | TGI (DU-145 prostate) [µM] | TGI (KM12 colon) [µM] | TGI (M14 melanoma) [µM] | GI50 (MDA-MB-435) [µM] | GI50 (HT29 colon) [µM] | GI50 (OVCAR-4 ovarian) [µM] | GI50 (NCI/ADR-RES ovarian) [µM] | GI50 (NCI-H460 lung) [µM] | GI50 (COLO 205 colon) [µM] | GI50 (SK-MEL-2 melanoma) [µM] | GI50 (DU-145 prostate) [µM] | GI50 (KM12 colon) [µM] | GI50 (M14 melanoma) [µM]
1 | C=C(C)C12CC(COC(=O)c3ccccc3)C34OC5(OC1C3C1OC1(CO)C(O)C1(O)C(OC(=O)c3ccccc3)C(C)C(C(C)CCCCCCC5O)C14)O2 (configuration not stated) | > 79.3 | 54.7 | > 100 | > 100 | > 100 | 24.4 | > 100 | > 100 | > 100 | > 100 |  |  |  |  |  |  |  |  |  | 
2 | COc1cccc(-c2cc(=O)c3ccccc3o2)c1N | > 100 | > 100 | > 100 | > 100 | > 100 | > 100 | > 100 | > 100 | > 100 | > 100 |  |  |  |  |  |  |  |  |  | 
3 | Cc1nnc(Nc2ccccc2)o1 | > 100 | > 100 | > 100 | > 100 |  | > 100 | > 100 | > 100 | > 100 | > 100 |  |  |  |  |  |  |  |  |  | 
4 | c1ccc(C2C3=C(Nc4ncnn42)c2ccccc2C3)cc1 (configuration not stated) |  | > 100 | > 100 |  | > 100 | 25.8 | > 100 |  | > 100 | > 100 |  |  |  |  |  |  |  |  |  | 
5 | C[C@@]12[C@H]3CC[C@@H]1[C@H](O)C(=O)N2CC3 | > 100 | > 100 | > 100 | > 100 | > 100 | > 100 | > 100 | > 100 | > 100 | > 100 |  |  |  |  |  |  |  |  |  | 
6 | OCc1ccc2[n+](c1)CCC1c3ccccc3NC21 (configuration not stated) |  | > 300 |  |  | > 300 | > 300 | > 300 |  | > 300 |  |  |  |  |  |  |  |  |  |  | 
7 | COc1ccc(C2CC(c3c(O)ccc4ccccc34)=NN2c2ccc([N+](=O)[O-])cc2[N+](=O)[O-])cc1OC (configuration not stated) | > 100 | 38.3 | > 100 | 17.4 | > 100 | 49 | > 65.1 | > 100 | > 76.6 | > 100 |  |  |  |  |  |  |  |  |  | 
8 | CN(C)/N=N/c1nc2c(c(=O)n(C)c(=O)n2C)n1C | > 100 | > 100 | > 100 | > 100 | > 100 | > 100 | > 100 | > 100 | > 100 | > 100 |  |  |  |  |  |  |  |  |  | 
9 | Cc1ccc(C(=O)Nc2ccc(CP(=O)(O)O)cc2CP(=O)(O)O)cc1NC(=O)c1cccc(N)c1 | > 100 | > 100 | > 100 | > 100 | > 100 | > 100 | > 100 | > 100 | > 100 | > 100 |  |  |  |  |  |  |  |  |  | 
10 | COCOC1/C=C/CCCC#C[C@H](C)C(=O)CC1 (some centres not stated) | 19.5 | 13.6 | 22.3 | 29 | 25.5 | 17.6 | 31.3 | 28 | 17 | 21 |  |  |  |  |  |  |  |  |  | 
11 | O=C(O)c1c2c(cc3c1CC1(Cc4ccccc4C1)C3)CCC2 | > 100 | > 100 | > 100 | > 100 | > 100 | > 100 |  | > 100 | > 100 |  |  |  |  |  |  |  |  |  |  | 
12 | Cc1nc(-c2ccc([N+](=O)[O-])cc2)cn2c1nc1ccccc12 | > 100 | > 100 | > 100 | > 100 | > 100 | > 100 | 69.2 | > 100 | > 100 | > 100 |  |  |  |  |  |  |  |  |  | 
13 | CCN(CC)CCc1c2c(nc3ccccc13)C(=O)c1cccnc1C2=O | 4.99 | 11.1 | 3.69 | > 100 |  | 3.07 | 10.4 | 1.84 | 6.57 | 1.73 |  |  |  |  |  |  |  |  |  | 
14 | COc1ccc(C(C#N)NNC(=O)c2ccccc2O)cc1OC (configuration not stated) |  | > 100 | > 100 |  | > 100 | > 100 | 78.2 |  | > 100 | 46.7 |  |  |  |  |  |  |  |  |  | 
15 | COc1ccc2[nH]c(O)c(/C=c3/cc4c(c(-c5cc(OC)c(OC)c(OC)c5)n3)=Nc3ccccc3-4)c2c1 | > 100 | 7.05 | > 100 | > 100 | > 100 | 21.5 | > 100 | > 100 | > 100 | > 100 | 3.48 | 2.41 | 4.41 | 3.3 | 4.07 | 3.67 | 15.9 | 88.2 | 5.04 | 6.32
16 | NC(N)=NS(=O)(=O)c1ccc(NCc2c3ccccc3[n+]([O-])c3ccccc23)cc1 |  | > 100 | 85.3 |  | > 100 | > 100 | > 100 |  | > 100 | > 100 |  |  |  |  |  |  |  |  |  | 
17 | C=C1CC(COc2cc(=O)oc3ccccc23)(c2ccccc2)OC1=O (configuration not stated) | 11 | 3.4 | 4.64 | 25.1 | 23.7 | 3.1 | 2.33 | 5.74 | 12.7 | 3.3 |  |  |  |  |  |  |  |  |  | 
18 | CCOP(=O)(OCC)/C(C#N)=C/c1cnc(-c2ccccc2)[nH]1 | 80.9 | > 100 | > 100 | > 100 | > 100 | > 100 | > 100 | > 100 | > 100 | > 100 |  |  |  |  |  |  |  |  |  | 
19 | C[N+]1=C2[B-](C(C)(C)C)=[N+](C(C)(C)C)[B-]2(C(C)(C)C)[N+](C)=C2[B-](C(C)(C)C)=[N+](C(C)(C)C)[B-]21C(C)(C)C (configuration not stated) | > 100 | > 100 | > 100 | > 100 | > 100 | > 100 | > 100 | > 100 | > 100 | > 100 |  |  |  |  |  |  |  |  |  | 
20 | Cc1ccc([C@@H]2[C@@H](C(=O)c3ccccn3)[C@H](c3ccc(C)cc3)C[C@](O)(c3ccccn3)[C@H]2C(=O)c2ccccn2)cc1 | > 100 | > 100 | > 100 | > 100 | 10.7 | > 100 | > 100 | > 100 | > 100 | 3.01 |  |  |  |  |  |  |  |  |  | 
